Assay results published in patent publication US11472791B2 (Incyte Corporation, priority 2019, dated 2022).

target: CDK2/Cyclin E1 (Homo sapiens (Human), UniProt P24941); assay: CDK2/Cyclin E1 HTRF enzyme activity assay; format: biochemical; details: 1 mM ATP
Method: Assays are conducted in white 384-well polystyrene plates in a final reaction volume of 8 μL. […] HTRF signals are read after 1 hour at room temperature on a PHERAstar FS plate reader (BMG Labtech). Data is analyzed with IDBS XLFit and GraphPad Prism 5.0 software using a three or four parameter dose response curve to determine IC50 for each compound.

IC50 | Compound
50 to 200 nM | Cc1nn(C2CCN(C)CC2)cc1-c1nc(NC2CCN(S(C)(=O)=O)CC2)ncc1F [Example 15, 5-Fluoro-4-(3-methyl-1-(1-methylpiperidin-4-yl)-1H-pyrazol-4-yl)-N-(1-(methylsulfonyl)piperidin-4-yl)pyrimidin-2-amine]
50 to 200 nM | Cc1nn(C2CCN(C)CC2)cc1-c1ccnc(NC2CCN(S(C)(=O)=O)CC2)n1 [Example 16, 4-(3-Methyl-1-(1-methylpiperidin-4-yl)-1H-pyrazol-4-yl)-N-(1-(methylsulfonyl)piperidin-4-yl)pyrimidin-2-amine]
< 50 nM | CS(=O)(=O)N1CCC(Nc2ncc(Cl)c(-c3cnn(C4CCOCC4)c3)n2)CC1 [Example 22, 5-Chloro-N-(1-(methylsulfonyl)piperidin-4-yl)-4-(1-(tetrahydro-2H-pyran-4-yl)-1H-pyrazol-4-yl)pyrimidin-2-amine]
< 50 nM | Cn1cnc(S(=O)(=O)N2CCC(Nc3ncc(C(F)(F)F)c(-c4cnn(C5CCOCC5)c4)n3)CC2)c1 [Example 23, N-(1-((1-Methyl-1H-imidazol-4-yl)sulfonyl)piperidin-4-yl)-4-(1-(tetrahydro-2H-pyran-4-yl)-1H-pyrazol-4-yl)-5-(trifluoromethyl)pyrimidin-2-amine]
< 50 nM | CCn1cnc(S(=O)(=O)N2CCC(Nc3ncc(C(F)(F)F)c(-c4cnn(C5CCOCC5)c4)n3)CC2)c1 [Example 24, N-(1-((1-Ethyl-1H-imidazol-4-yl)sulfonyl)piperidin-4-yl)-4-(1-(tetrahydro-2H-pyran-4-yl)-1H-pyrazol-4-yl)-5-(trifluoromethyl)pyrimidin-2-amine]
< 50 nM | Cn1cnc(S(=O)(=O)N2CCC(Nc3ncc(C(F)(F)F)c(-c4cnn(CC(F)(F)F)c4)n3)CC2)c1 [Example 25, N-(1-((1-Methyl-1H-imidazol-4-yl)sulfonyl)piperidin-4-yl)-4-(1-(2,2,2-trifluoroethyl)-1H-pyrazol-4-yl)-5-(trifluoromethyl)pyrimidin-2-amine]
< 50 nM | Cn1cnc(S(=O)(=O)N2CCC(Nc3ncc(C(F)(F)F)c(-c4cnn([C@H]5CC[C@H](O)CC5)c4)n3)CC2)c1 [Example 26, trans-4-(4-(2-((1-((1-Methyl-1H-imidazol-4-yl)sulfonyl)piperidin-4-yl)amino)-5-(trifluoromethyl)pyrimidin-4-yl)-1H-pyrazol-1-yl)cyclohexan-1-ol]
< 50 nM | CNCc1ccc(-n2cc(-c3nc(NC4CCN(S(C)(=O)=O)CC4)ncc3C(F)(F)F)cn2)c(Cl)c1 [Example 29, 4-(1-(2-Chloro-4-((methylamino)methyl)phenyl)-1H-pyrazol-4-yl)-V-(1-(methylsulfonyl)piperidin-4-yl)-5-(trifluoromethyl)pyrimidin-2-amine]
< 50 nM | N#Cc1cnc(NC2CCN(S(=O)(=O)c3ccccn3)CC2)nc1-c1cnn(CC(F)(F)F)c1 [Example 39, 2-((1-(Pyridin-2-ylsulfonyl)piperidin-4-yl)amino)-4-(1-(2,2,2-trifluoroethyl)-1H-pyrazol-4-yl)pyrimidine-5-carbonitrile]

The remaining lines, values behind:

Compound | IC50
N#Cc1cccc(S(=O)(=O)N2CCC(Nc3ncc(C(F)(F)F)c(-c4cnn(C5CCOCC5)c4)n3)CC2)c1 [Example 7, 3-((4-((4-(1-(Tetrahydro-2H-pyran-4-yl)-1H-pyrazol-4-yl)-5-(trifluoromethyl)pyrimidin-2-yl)amino)piperidin-1-yl)sulfonyl)benzo nitrile] | < 50 nM
O=C(Nc1ccc(S(=O)(=O)N2CCC(Nc3ncc(C(F)(F)F)c(-c4cnn(C5CCOCC5)c4)n3)CC2)cc1)N1CCOCC1 [Example 8, N-(4-((4-((4-(1-(Tetrahydro-2H-pyran-4-yl)-1H-pyrazol-4-yl)-5-(trifluoromethyl)pyrimidin-2-yl)amino)piperidin-1-yl)sulfonyl)phenyl)morpholine-4-carboxamide] | < 50 nM
Cn1cc(S(=O)(=O)N2CCC(Nc3ncc(C(F)(F)F)c(-c4cnn(C5CCOCC5)c4)n3)CC2)cn1 [Example 9, N-(1-((1-Methyl-1H-pyrazol-4-yl)sulfonyl)piperidin-4-yl)-4-(1-(tetrahydro-2H-pyran-4-yl)-1H-pyrazol-4-yl)-5-(trifluoromethyl)pyrimidin-2-amine] | < 50 nM
CS(=O)(=O)N1CCC(Nc2ncc(C(F)(F)F)c(-c3cnn(C4CCCCC4)c3)n2)CC1 [Example 12, 4-(1-Cyclohexyl-1H-pyrazol-4-yl)-N-(1-(methylsulfonyl)piperidin-4-yl)-5-(trifluoromethyl)pyrimidin-2-amine] | < 50 nM
CS(=O)(=O)N1CCC(Nc2ncc(C(F)(F)F)c(-c3cnn(-c4ccccc4F)c3)n2)CC1 [Example 13, 4-(1-(2-Fluorophenyl)-1H-pyrazol-4-yl)-N-(1-(methylsulfonyl)piperidin-4-yl)-5-(trifluoromethyl)pyrimidin-2-amine] | < 50 nM
CS(=O)(=O)N1CCC(Nc2ncc(C(F)(F)F)c(-c3cnn(-c4ccccc4Cl)c3)n2)CC1 [Example 14, 4-(1-(2-Chlorophenyl)-1H-pyrazol-4-yl)-N-(1-(methylsulfonyl)piperidin-4-yl)-5-(trifluoromethyl)pyrimidin-2-amine] | < 50 nM
CN1CCC(n2cc(-c3nc(NC4CCN(S(C)(=O)=O)CC4)ncc3F)c(C(F)(F)F)n2)CC1 [Example 17, 5-Fluoro-4-(1-(1-methylpiperidin-4-yl)-3-(trifluoromethyl)-1H-pyrazol-4-yl)-N-(1-(methylsulfonyl)piperidin-4-yl)pyrimidin-2-amine] | < 50 nM
CN1CCC(n2ncc(-c3nc(NC4CCN(S(C)(=O)=O)CC4)ncc3C(F)(F)F)c2C(F)(F)F)CC1 [Example 18, 4-(1-(1-Methylpiperidin-4-yl)-5-(trifluoromethyl)-1H-pyrazol-4-yl)-N-(1-(methylsulfonyl)piperidin-4-yl)-5-(trifluoromethyl)pyrimidin-2-amine] | 50 to 200 nM
CS(=O)(=O)N1CC(Nc2ncc(C(F)(F)F)c(-c3cnn(C4CCOCC4)c3)n2)C1 [Example 20, N-(1-(Methylsulfonyl)azetidin-3-yl)-4-(1-(tetrahydro-2H-pyran-4-yl)-1H-pyrazol-4-yl)-5-(trifluoromethyl)pyrimidin-2-amine] | 500 to 1000 nM
Cc1nc(C(=O)N[C@]2(C)C[C@H](O)C2)ccc1-n1cc(-c2nc(NC3CCN(S(C)(=O)=O)CC3)ncc2C(F)(F)F)cn1 [Example 28, N-(cis-3-Hydroxy-1-methylcyclobutyl)-6-methyl-5-(4-(2-(1-(methylsulfonyl)piperidin-4-ylamino)-5-(trifluoromethyl)pyrimidin-4-yl)-1H-pyrazol-1-yl)picolinamide] | < 50 nM
CC(C)(C(N)=O)n1cc(-c2nc(NC3CCN(S(C)(=O)=O)CC3)ncc2C(F)(F)F)cn1 [Example 30, 2-Methyl-2-(4-(2-((1-(methylsulfonyl)piperidin-4-yl)amino)-5-(trifluoromethyl)pyrimidin-4-yl)-1H-pyrazol-1-yl)propanamide] | < 50 nM
Cn1cnc(S(=O)(=O)N2CCC(Nc3ncc(C(F)(F)F)c(-c4cnn(CC(F)F)c4)n3)CC2)c1 [Example 31, 4-(1-(2,2-Difluoroethyl)-1H-pyrazol-4-yl)-N-(1-((1-methyl-1H-imidazol-4-yl)sulfonyl)piperidin-4-yl)-5-(trifluoromethyl)pyrimidin-2-amine] | < 50 nM
Cn1cnc(S(=O)(=O)N2CCC(Nc3ncc(C(F)(F)F)c(-c4cnn(CC5CC5)c4)n3)CC2)c1 [Example 32, 4-(1-(Cyclopropylmethyl)-1H-pyrazol-4-yl)-N-(1-((1-methyl-1H-imidazol-4-yl)sulfonyl)piperidin-4-yl)-5-(trifluoromethyl)pyrimidin-2-amine] | < 50 nM
Cn1cnc(S(=O)(=O)N2CCC(Nc3ncc(C(F)(F)F)c(-c4cnn(C[C@H]5CCOC5)c4)n3)CC2)c1 [Example 33, (R)—N-(1-((1-Methyl-1H-imidazol-4-yl)sulfonyl)piperidin-4-yl)-4-(1-((tetrahydrofuran-3-yl)methyl)-1H-pyrazol-4-yl)-5-(trifluoromethyl)pyrimidin-2-amine] | < 50 nM
CS(=O)(=O)N1CCC(Nc2ncc(C(F)(F)F)c(-c3cnn([C@H]4CC[C@H](C#N)CC4)c3)n2)CC1 [Example 34, trans-4-(4-(2-((1-(Methylsulfonyl)piperidin-4-yl)amino)-5-(trifluoromethyl)pyrimidin-4-yl)-1H-pyrazol-1-yl)cyclohexane-1-carbonitrile] | < 50 nM
Cc1c(-n2cc(-c3nc(NC4CCN(S(=O)(=O)c5cn(C)cn5)CC4)ncc3C(F)(F)F)cn2)ccnc1N [Example 35, 4-(1-(2-Amino-3-methylpyridin-4-yl)-1H-pyrazol-4-yl)-N-(1-((1-methyl-1H-imidazol-4-yl)sulfonyl)piperidin-4-yl)-5-(trifluoromethyl)pyrimidin-2-amine] | < 50 nM
Cn1cnc(S(=O)(=O)N2CCC(Nc3ncc(C(F)(F)F)c(-c4cnn(-c5ccnc(N)c5Cl)c4)n3)CC2)c1 [Example 36, 4-(1-(2-Amino-3-chloropyridin-4-yl)-1H-pyrazol-4-yl)-N-(1-((1-methyl-1H-imidazol-4-yl)sulfonyl)piperidin-4-yl)-5-(trifluoromethyl)pyrimidin-2-amine] | < 50 nM
CS(=O)(=O)N1CCC(Nc2ncc(C(F)(F)F)c(-c3cnn(-c4cc(N)ncc4C(F)(F)F)c3)n2)CC1 [Example 37, 4-(1-(2-Amino-5-(trifluoromethyl)pyridin-4-yl)-1H-pyrazol-4-yl)-N-(1-(methylsulfonyl)piperidin-4-yl)-5-(trifluoromethyl)pyrimidin-2-amine] | < 50 nM
Cn1cnc(S(=O)(=O)N2CCC(Nc3ncc(C#N)c(-c4cnn(CC(F)(F)F)c4)n3)CC2)c1 [Example 38, 2-((1-((1-Methyl-1H-imidazol-4-yl)sulfonyl)piperidin-4-yl)amino)-4-(1-(2,2,2-trifluoroethyl)-1H-pyrazol-4-yl)pyrimidine-5-carbonitrile] | < 50 nM
Cn1cnc(S(=O)(=O)N2CCC(Nc3ncc(Cl)c(-c4cnn(CC(F)(F)F)c4)n3)CC2)c1 [Example 40, 5-Chloro-N-(1-((1-methyl-1H-imidazol-4-yl)sulfonyl)piperidin-4-yl)-4-(1-(2,2,2-trifluoroethyl)-1H-pyrazol-4-yl)pyrimidin-2-amine] | < 50 nM
